Results as given in patent publication US20060127432A1, “Surface treatment for wood and wood products” (priority 2002, published 2006).
Marks after values point to notes of the source that are not given here.

Experiments:
[1] = tested on: Mastotermes darwiniensis; experiment: Field drum test (AWPA protocols), treated radiata pine exposed to termites; format: in vivo; set-up: Mean score: scale not given here; settings: for Mean score / Pass or Fail: radiata pine, field
Method: (§1) The rates required to achieve protection are 4 and 23 g/m3 applied on the surface of 35×90 mm radiata pine for Coptotermes acinaciformis and Mastotermes darwiniensis respectively. These studies were conducted using the drum test described by the AWPA protocols.

[2] = tested on: Coptotermes acinaciformis; experiment: as above; format: in vivo; set-up: key to Mean rating: 1: Sound; 2: Superficial attack-grazing; Penetration - >3 mm in depth; 4: Attack Slight −10-25% mass loss; Attack Moderate 25-50% mass loss; 6: Attack Severe 50-70% mass loss; Attack Destroyed 75-100% mass loss; settings: for Mean rating / Pass or Fail / Success (Pass or Fail): radiata pine, field
Method: as §1
Additives can be incorporated during the application of bifenthrin, for example colors, fire retardants, water repellents and resins.
A modification of superficial treatments is the partial introduction of bifenthrin into the wood. The result of this is an envelope around the cross section of the timber board or wood product or just a partial penetration.

[3] = Degradation on exposure to temperature and UV light; format: physicochemical
Text: (§2) Until this invention, adequately protecting timber against termite attack required a treatment which provided significant penetration of the sapwood. This was the case due to the fact that other available active ingredients degraded very quickly when exposed to increased temperature and Ultra Violet (UV) light. The penetration was required to protect the active ingredient (“active”) from the degradation. The most common used active in the 1990's which penetrated the timber was Permethrin. […] Thus, when using Permethrin, it was required to penetrate into the timber otherwise the product would degrade and not protect the timber. […] This problem was so severe that it made the use of Deltamethin unviable.
(§3) This increased stability together with the repellent effects of Bifenthrin combined to allow only a superficial treating of the timber where the need for significant penetration is not required.

[4] = tested on: workers who handled the treated timber; experiment: OH&S testing, handling of treated timber; format: in vivo
Text: as §2, §3

[5] = tested on: Coptotermes acinaciformis; experiment: Timber protection using standard practice in the timber industry; format: in vivo
Text: (§4) The rates are 5 and 20 g/m3 respectively.

[6] = tested on: Mastotermes darwiniensis; experiment: as above; format: in vivo
Text: as §4

[7] = tested on: termites; experiment: Simulated house frames exposed to 120,000 termites; format: in vivo; settings: superficial treatment, ends not treated; six months of exposure, 120,000 termites
Text: The ends of the samples were not treated. Simulated frames were exposed to 120,000 termites.

[8] = Solubility in water; format: physicochemical
Text: (§5) These two attributes of bonding & water insolubility, together with the abovementioned stability when exposed to temperature and UV result in the chemical staying on the timber when exposed to rain, sunlight, temperature or handling. No other chemicals used in the past have such characteristics which would allow a mere superficial treatment.

[9] = Bonding to timber; format: physicochemical; settings: compared with Permethrin
Text: as §5

[10] = 15 g/m^3, superficial treatment
[11] = 23 g/m^3, superficial treatment
[12] = 38 g/m^3, superficial treatment
[13] = applied on the surface of 35×90 mm radiata pine (dipping or spraying)
[14] = 4 g/m^3 + water repellents, superficial treatment
[15] = 8 g/m^3 + water repellents, superficial treatment
[16] = 15 g/m^3 + water repellents, superficial treatment
[17] = 23 g/m^3 + water repellents, superficial treatment
[18] = Partial penetration more than 3 mm, 6-12 g/m^3
[19] = Partial penetration more than 3 mm, 13-20 g/m^3

CC1(C)C(C=C(Cl)Cl)C1C(=O)OCc1cccc(Oc2ccccc2)c1 (stereo not drawn) [permethrin, Permethrin]
Mean score ([1]; 0.02% m/m permethrin (LOSP)): 1.8 | Pass or Fail ([1]; 0.02% m/m permethrin (LOSP)): Pass | Mean score ([1]; .007% m/m permethrin (LOSP)): 2.2 | Pass or Fail ([1]; .007% m/m permethrin (LOSP)): Fail | Mean score ([1]; .013% m/m permethrin (LOSP)): 2.2 | Pass or Fail ([1]; .013% m/m permethrin (LOSP)): Fail | Mean rating ([2]; 0.007% m/m OD permethrin): 2 | Pass or Fail ([2]; 0.007% m/m OD permethrin): Fail | Mean rating ([2]; 0.013% m/m OD permethrin): 1.8 | Pass or Fail ([2]; 0.013% m/m OD permethrin): Fail | Mean rating ([2]; 0.02% m/m OD permethrin): 1.3 | Pass or Fail ([2]; 0.02% m/m OD permethrin): Pass | Resistance to UV light [3]: very low resistance to UV light | Degradation on exposure to temperature ([3]; heat): degrade when exposed to temperatures above 25 degrees centigrade

CC1(C)[C@H](C(=O)O[C@H](C#N)c2cccc(Oc3ccccc3)c2)[C@@H]1C=C(Br)Br [Deltamethrin]
Skin irritation / parasthesia on exposure to treated timber [4]: all workers who handled the treated timber complained of a parasthesia or skin irritation | Resistance to UV light [3]: degrade rapidly when exposed to UV light

Cc1c(COC(=O)[C@@H]2[C@H](/C=C(\Cl)C(F)(F)F)C2(C)C)cccc1-c1ccccc1 (racemic) [Bifenthrin]
Mean score ([1]; 4 g/m^3, superficial treatment): 3.3 | Pass or Fail ([1]; 4 g/m^3, superficial treatment): Fail | Mean score ([1]; 8 g/m^3, superficial treatment): 2.2 | Pass or Fail ([1]; 8 g/m^3, superficial treatment): Fail | Mean score [1, 10]: 2.0 | Pass or Fail [1, 10]: Fail | Mean score [1, 11]: 1.7 | Pass or Fail [1, 11]: Pass | Mean score [1, 12]: 1.0 | Pass or Fail [1, 12]: Pass | Rate required to achieve protection [1, 13]: 23 g/m3 | Mean rating [2, 14]: 1.2 | Success (Pass or Fail) [2, 14]: Pass | Mean rating [2, 15]: 1.3 | Success (Pass or Fail) [2, 15]: Pass | Mean rating [2, 16]: 1.2^b | Success (Pass or Fail) [2, 16]: Pass | Mean rating [2, 17]: 1.2 | Success (Pass or Fail) [2, 17]: Pass | Mean rating [2, 18]: 1.0 | Success (Pass or Fail) [2, 18]: Pass | Mean rating [2, 19]: 1.0 | Success (Pass or Fail) [2, 19]: Pass | Repellent effect with added water repellents ([2]; addition of water repellents): did not mask the repellent effect | Rate required to achieve protection [2, 13]: 4 g/m3 | Rate required to protect timber [5]: 5 g/m3 | Rate required to protect timber [6]: 20 g/m3 | Attack of simulated frames [7]: the treated frames were not | Skin irritation / parasthesia on exposure to treated timber [4]: does not produce any skin irritation | Degradation through exposure to UV or heat ([3]; superficially treated timber): significant penetration was not required to protect the active against degradation | Solubility in water [8]: virtually insoluble in water | Bonding co-efficient [9]: significantly greater than that of Permethrin
